In paper PMC5667636 (Antiviral Research, 2017):

Assays:
[1] = test system: neuraminidase (NA) of A(H3N2) viruses; type: biochemical, influenza A(H3N2) virus
[2] = test system: neuraminidase (NA) of B/Yamagata-lineage viruses; type: biochemical, influenza B/Yamagata-lineage virus
[3] = test system: neuraminidase (NA) of B/Victoria-lineage viruses; type: biochemical, influenza B/Victoria-lineage virus
[4] = test system: neuraminidase (NA) of A(H1N1)pdm09 viruses; type: biochemical, influenza A(H1N1)pdm09 virus

SMILES	inhibition phenotype in NAI assay (NI/RI/HRI) [1]	inhibition phenotype in NAI assay (NI/RI/HRI) [2]	IC50 fold-change [1]	IC50 fold-change compared to reference median IC50 values [1]	IC50 fold-change [3]	inhibition phenotype in NAI assay (NI/RI/HRI) [4]
[H]/N=C(\N)N[C@H]1C=C(C(=O)O)O[C@@H]([C@H](OC)[C@H](O)CO)[C@@H]1NC(C)=O [Laninamivir, laninamivir]	borderline NI					
CCOC(=O)C1=C[C@@H](OC(CC)CC)[C@H](NC(C)=O)[C@@H](N)C1 [Oseltamivir, oseltamivir]		borderline RI	87 fold	87 fold		
CC(=O)N[C@H]1[C@H]([C@H](O)[C@H](O)CO)OC(C(=O)O)=C[C@@H]1N=C(N)N [Zanamivir, zanamivir]			32 fold	32 fold	14–17 fold	borderline RI
